In this assay the test system is NPC fibroblasts. Nature of the assay: Fate of cell surface fPEG-Chol, incorporation into meshwork structure. The settings on record: for incorporation of fPEG-Chol into meshwork: inhibitor 5 μg/ml before 1 μM fPEG-Chol.

With `COC(=O)Nc1nc2ccc(C(=O)c3cccs3)cc2[nH]1` [nocodazole], the “incorporation of fPEG-Chol into meshwork” value is listed as “did not significantly affect”. Take `C[C@H]1CCC/C=C/[C@@H]2C[C@H](O)C[C@H]2[C@H](O)/C=C/C(=O)O1` [Brefeldin A]: the “incorporation of fPEG-Chol into meshwork” value is recorded as “did not significantly affect”.

For `C=C1[C@@H](C)[C@H]2[C@H](Cc3ccccc3)NC(=O)[C@]23OC(=O)/C=C/[C@H](O)CCC[C@@H](C)C/C=C/[C@H]3[C@@H]1O` [cytochalasin B], the “incorporation of fPEG-Chol into meshwork” value is “meshwork structure was disappeared”. Also, the “internalization of rhodamine dextran” value (5 μg/ml, 30 minutes, 1 mg/ml rhodamine dextran) is “did not affect”.
